Values of other authors as cited in patent publication US8202842B2, “Inhibition of cholera toxins by galatooligosaccharides (GOS)” (priority 2006, dated 2012).

What was measured:
cholera toxin = cholera toxin (Vibrio cholerae serotype O1, UniProt P01556); settings: rabbit, in vivo
[1] = test system: uropathogenic Escherichia coli; settings: soluble, monovalent

Chain of cholera toxin (P01556 whole entry, looked up): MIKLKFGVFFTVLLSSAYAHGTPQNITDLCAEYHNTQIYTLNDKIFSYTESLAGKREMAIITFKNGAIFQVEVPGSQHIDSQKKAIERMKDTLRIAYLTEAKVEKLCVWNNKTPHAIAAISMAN

3-sialyllactose
Inhibition of fluid accumulation induced by cholera toxin (cholera toxin): inhibitor of fluid accumulation

OC[C@H]1O[C@H](O[C@@H]2[C@H](O)[C@@H](O)[C@H](O[C@H]3[C@H](O)[C@@H](O)C(O)O[C@@H]3CO)O[C@@H]2CO)[C@H](O)[C@@H](O)[C@H]1O (some centres unmarked) [globotriose]
Interference with attachment and colonization of uropathogenic Escherichia coli [1]: interfere with attachment and colonization
